Assay results from US12673915B2, “Precursor compound of hexahydro-beta-acid component compound, feed composition and use thereof” (WISORIG TECHNOLOGIES PTE. LIMITED, priority 2020, dated 2026).

How the values were obtained:
[1] = Photostability testing under illumination of 4500 Lx of ingredient and 1% premix (HPLC); type: physicochemical; settings: for Residual amount of active ingredient: 4500 Lx
Text: (§1) Preparation of a sample of 1% premix of an ingredient: 1 g of an ingredient was respectively weighed out and evenly mixed with 99 g of corncob meal in a mixer to give a sample of 1% premix of an ingredient for testing.
Photostability testing: The samples of an ingredient and 1% premix thereof were respectively spread in petri dishes to form thin layers of <5 mm, and kept under an illumination of 4500 Lx. Three replications for a sample were sampled in parallel on day 5 and day 10 for HPLC analysis.
(§2) 25.0 mg of an ingredient was accurately weighed out and dissolved in an appropriate amount of methanol by ultrasonication. The solution was then transferred to a volumetric flask and diluted to 25 mL with methanol to give a stock solution. The samples from the stock solution were diluted with methanol respectively to a concentration of 100 ppm, 500 ppm, and 1000 ppm of work solution, and then the working solutions were filtered by 0.22 μm organic membranes. Between the concentration of a sample and the response value of HPLC peak area thereof, the linearity was adjusted and detected to give a standard curve.
(§3) 2.3: Preparation of Sample Solution 25.0 mg of an ingredient and 2.0000 g of a sample of 1% premix thereof were respectively accurately weighed out, and dissolved in 25 mL of methanol by ultrasonication for 10 minutes. The resulting solutions were filtered by organic membranes and then analyzed by HPLC. 2.4: Testing Conditions for HPLC • Column: Symmetry Cis column (Waters; 250 mm*4.6 mm, 5 μm). • Mobile phase: 0.02% phosphoric acid:methanol=5:95 (v:v). • Wavelength: 235 nm. • Temperature of the Column: 25° C. • Injection volume: 10 μL. • Flow rate: 1 mL/min. 3: Results

[2] = Thermal stability testing at 60° C. of ingredient and 1% premix (HPLC); type: physicochemical
Procedure: as §1
Thermal stability testing at 60° C.: The samples of an ingredient and 1% premix thereof were respectively spread in petri dishes to form thin layers of <5 mm, and kept at 60° C. Two replications for a sample were taken in parallel on day 5 and day 10 for HPLC analysis.
as §2, §3

[3] = 1% Premix of an ingredient (corncob meal), Day 5
[4] = 1% Premix of an ingredient (corncob meal), Day 10

CC(=O)OC1=C(CCC(C)C)C(=O)C(CCC(C)C)(CCC(C)C)C(O)=C1C(=O)C(C)C [hexahydro-colupulone mono-acetate, Hexahydro-Colupulone Mono-Acetate]
Residual amount of active ingredient [1, 3]: 99.28% | Residual amount of active ingredient [1, 4]: 98.82% | Residual amount of active ingredient ([1]; Ingredient, Day 5): 98.97% | Residual amount of active ingredient ([1]; Ingredient, Day 10): 98.31% | Residual amount of active ingredient [2, 3]: 99.40% | Residual amount of active ingredient [2, 4]: 98.68% | Residual amount of active ingredient ([2]; Ingredient, Day 5): 99.69% | Residual amount of active ingredient ([2]; Ingredient, Day 10): 99.44%

CCCC(=O)OC1=C(CCC(C)C)C(=O)C(CCC(C)C)(CCC(C)C)C(O)=C1C(=O)C(C)C [hexahydro-colupulone mono-butyrate]
Residual amount of active ingredient [1, 3]: 99.14% | Residual amount of active ingredient [1, 4]: 98.08% | Residual amount of active ingredient ([1]; Ingredient, Day 5): 99.99% | Residual amount of active ingredient ([1]; Ingredient, Day 10): 99.10% | Residual amount of active ingredient [2, 3]: 98.21% | Residual amount of active ingredient [2, 4]: 97.57% | Residual amount of active ingredient ([2]; Ingredient, Day 5): 99.76% | Residual amount of active ingredient ([2]; Ingredient, Day 10): 99.64%

CC(C)CCC1=C(O)C(C(=O)C(C)C)=C(O)C(CCC(C)C)(CCC(C)C)C1=O [hexahydro-colupulone, reference compound]
Residual amount of active ingredient [1, 3]: 90.11% | Residual amount of active ingredient [1, 4]: 83.62% | Residual amount of active ingredient ([1]; Ingredient, Day 5): 92.71% | Residual amount of active ingredient ([1]; Ingredient, Day 10): 85.66% | change of active ingredient ([1]; active ingredient of 1% premix, photostability testing, day 10): more than 15% | Residual amount of active ingredient [2, 3]: 97.02% | Residual amount of active ingredient [2, 4]: 93.56% | Residual amount of active ingredient ([2]; Ingredient, Day 5): 99.76% | Residual amount of active ingredient ([2]; Ingredient, Day 10): 99.10% | change of active ingredient ([2]; active ingredient of 1% premix, 10-day testing period): more than 5%
